Experimental data taken from PubChem BioAssay AID2060602 (Molecular Pharmacology Branch, DTP, NCI, 2025).
“And” between values parts separate entries of the source, which are not always exact repeats. Identical values can stand only once.

Test system: 648629-189-R-J1-PDC complex spheroids viability
Assay: Anticancer human tumor 648629-189-R-J1-PDC patient-derived bladder carcinoma cell line growth inhibition [CLK]
Conditions: for viability, T/C: stronger effect = lower value
Summary of the method: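 Patient-derived tumor cells grown as complex spheroids with HUVEC endothelial cells and mesenchymal stem cells, treated with drug combinations. Concentrations descend in half-log steps from near clinical Cmax, or from 10 microM if Cmax unknown.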
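Wherever viability, T/C is given: drug exposure lasted seven days before viability readout; 100% = DMSO vehicle control wells.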

C#Cc1c(F)ccc2cc(O)cc(-c3ncc4c(N5CC6CCC(C5)N6)nc(OCC56CCCN5CC(F)C6)nc4c3F)c12 (centres undefined) + CNC(=O)c1ccc(Nc2nc(OC3CCCC3)c3c(-c4ccc5nc(C)oc5c4)c[nH]c3n2)c(OC)c1
IC50 (curve of first compound, second compound 0.0316 µM): > 10000 nM | IC50 (curve of first compound, second compound 0.1 µM): 8430 nM | IC50 (curve of first compound, second compound 0.316 µM): < 31.6 nM | IC50 (curve of first compound, second compound 1 µM): < 31.6 nM | IC50 (curve of first compound, second compound 3.16 µM): < 31.6 nM | IC50 (curve of first compound, second compound 10 µM): < 31.6 nM | viability, T/C (second compound 0.0316 µM, first compound 0.0316 µM): 120% | viability, T/C (second compound 0.0316 µM, first compound 0.1 µM): 88.4% | viability, T/C (second compound 0.0316 µM, first compound 0.316 µM): 108% | viability, T/C (second compound 0.0316 µM, first compound 1 µM): 105% | viability, T/C (second compound 0.0316 µM, first compound 3.16 µM): 100% | viability, T/C (second compound 0.0316 µM, first compound 10 µM): 91.4% | viability, T/C (second compound 0.1 µM, first compound 0.0316 µM): 83.2% | viability, T/C (second compound 0.1 µM, first compound 0.1 µM): 76.9% | viability, T/C (second compound 0.1 µM, first compound 0.316 µM): 84.1% | viability, T/C (second compound 0.1 µM, first compound 1 µM): 79.4% | viability, T/C (second compound 0.1 µM, first compound 3.16 µM): 61.8% | viability, T/C (second compound 0.1 µM, first compound 10 µM): 48% | viability, T/C (second compound 0.316 µM, first compound 0.0316 µM): 28.1% | viability, T/C (second compound 0.316 µM, first compound 0.1 µM): 25.4% | viability, T/C (second compound 0.316 µM, first compound 0.316 µM): 25.1% | viability, T/C (second compound 0.316 µM, first compound 1 µM): 23% | viability, T/C (second compound 0.316 µM, first compound 3.16 µM): 19.3% | viability, T/C (second compound 0.316 µM, first compound 10 µM): 22% | viability, T/C (second compound 1 µM, first compound 0.0316 µM): 18.7% | viability, T/C (second compound 1 µM, first compound 0.1 µM): 20.2% | viability, T/C (second compound 1 µM, first compound 0.316 µM): 15.5% | viability, T/C (second compound 1 µM, first compound 1 µM): 18.6% | viability, T/C (second compound 1 µM, first compound 3.16 µM): 18.2% | viability, T/C (second compound 1 µM, first compound 10 µM): 19.4% | viability, T/C (second compound 3.16 µM, first compound 0.0316 µM): 17.2% | viability, T/C (second compound 3.16 µM, first compound 0.1 µM): 17.6% | viability, T/C (second compound 3.16 µM, first compound 0.316 µM): 15.4% | viability, T/C (second compound 3.16 µM, first compound 1 µM): 16.9% | viability, T/C (second compound 3.16 µM, first compound 3.16 µM): 17.6% | viability, T/C (second compound 3.16 µM, first compound 10 µM): 17.9% | viability, T/C (second compound 10 µM, first compound 0.0316 µM): 20.1% | viability, T/C (second compound 10 µM, first compound 0.1 µM): 18.5% | viability, T/C (second compound 10 µM, first compound 0.316 µM): 18% | viability, T/C (second compound 10 µM, first compound 1 µM): 17% | viability, T/C (second compound 10 µM, first compound 3.16 µM): 21.5% | viability, T/C (second compound 10 µM, first compound 10 µM): 16.6%

CC(C)CC(NC(=O)C(Cc1ccccc1)NC(=O)c1cnccn1)B(O)O (centres undefined)
viability, T/C (compound 0.000949 µM): 93.5% and 99.9% | viability, T/C (compound 0.003 µM): 73.2% and 41.8% | viability, T/C (compound 0.00949 µM): 1.45% and 1.53% | viability, T/C (compound 0.03 µM): 0.27% and 1.43% | viability, T/C (compound 0.0949 µM): 0.2% and 0.17% | viability, T/C (compound 0.3 µM): 1.64% and 0.18% | IC50 (curve of compound): 4.35 nM and 2.55 nM
